This passage reports EC50 and Ki results from PubChem BioAssay AID2020 (NMMLSC, 2009).

The target in this assay is Cell division control protein 42 homolog (Homo sapiens) (UniProt P60953). As to the kind of experiment: fluorescent GTP binding blockers of active-mutant Cdc42 – biochemical, pyrazoline analogs, multiplex bead flow cytometry, Ki, SAR follow-up (AID 2020). The following applies: bead-based flow cytometry, Bodipy-FL-GTP binding; for Ki: measured here: Ki calculated from EC50.

Active and inactive are the calls of the source.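 How the source made its calls: active means EC50 at or below 30 µM together with a response span of at least a set limit; inactive means the rest.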 Some results are limits rather than exact numbers.

Chain of Cell division control protein 42 homolog (Homo sapiens) (P60953 whole entry, looked up, change not shown): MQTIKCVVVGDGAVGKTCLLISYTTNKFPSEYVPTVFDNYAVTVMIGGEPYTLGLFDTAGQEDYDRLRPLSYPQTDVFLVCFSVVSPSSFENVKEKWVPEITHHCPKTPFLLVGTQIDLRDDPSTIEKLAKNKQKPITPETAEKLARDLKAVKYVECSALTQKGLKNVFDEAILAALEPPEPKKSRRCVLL

Turning to `COc1ccc(C2=NN(c3ccc(S(N)(=O)=O)cc3)C(c3ccc(OC)cc3)C2)cc1` (centres undefined), the EC50 result is “inactive” and the Ki was 390 nM. On to `Cc1cccc(N2N=C(c3ccccc3)CC2c2ccccc2)c1` (centres undefined), for which the EC50 was > 30 µM (inactive). For `O=C(O)c1ccc(N2N=C(c3ccccc3)CC2c2ccccc2)cc1` (centres undefined), the EC50 is > 30 µM (inactive). Take `Cc1ccccc1N1N=C(c2ccccc2)CC1c1ccc(N(C)C)cc1` (centres undefined): the EC50 is > 30 µM (inactive). Regarding `COc1ccc(C2CC(C3CCCCC3)=NN2c2ccc(S(N)(=O)=O)cc2)cc1` (centres undefined), the EC50 is > 30 µM (inactive). Consider `Cc1ccc(-c2cc(C(F)(F)F)nn2-c2ccc(S(N)(=O)=O)cc2)cc1`, for which the EC50 is > 30 µM (inactive).

For `COc1cccc(C2CC(c3ccccc3)=NN2c2ccc(S(N)(=O)=O)cc2)c1` (centres undefined), the EC50 is 4.32 µM and the Ki was 670 nM.

Regarding `O=S(=O)(c1ccc(N2N=C(c3ccc(Br)cc3)CC2c2ccccc2)cc1)C(F)F` (centres undefined), the EC50 was > 30 µM (inactive). Regarding `COc1ccc(C2CC(c3ccc(F)cc3)=NN2c2cc(Cl)ccc2Cl)cc1` (centres undefined), the EC50 is > 30 µM (inactive). `COc1ccc(C2=NN(c3ccc(Cl)cc3)C(c3ccccc3F)C2)cc1` (centres undefined): the EC50 is > 30 µM (inactive). Regarding `COc1ccc(C2CC(c3cccc(OC)c3)=NN2c2ccc(S(N)(=O)=O)cc2)cc1` (centres undefined), the EC50 was 1.59 µM and the Ki was 250 nM. On to `NS(=O)(=O)c1ccc(N2N=C(c3ccccc3)CC2c2ccc(Br)cc2)cc1` (centres undefined), for which the concentration giving a half-maximal response (EC50) is 1.7 µM and the Ki is 260 nM.

For the molecule `CN(C)c1ccc(C2CC(c3ccccc3)=NN2c2ccc([N+](=O)[O-])cc2)cc1` (centres undefined), the EC50 is > 30 µM (inactive).

Take `COc1ccc(C2CC(C(C)(C)C)=NN2c2ccc(S(N)(=O)=O)cc2)cc1` (centres undefined): the EC50 was > 30 µM (inactive).

In the case of `Clc1ccc(N2N=C(c3ccccc3)CC2c2ccccc2)cc1` (centres undefined), the EC50 was > 30 µM (inactive).

Consider `COc1ccc(C2CC(c3ccccc3)=NN2c2ccc(Cl)c(C(=O)O)c2)cc1` (centres undefined), for which the EC50 is > 30 µM (inactive).

Take `COc1ccc(C2CC(c3cccc(C)c3)=NN2c2ccc(S(N)(=O)=O)cc2)cc1` (centres undefined): the EC50 was 4.05 µM and the Ki was 630 nM.

Turning to `Cc1ccccc1N1N=C(c2ccccc2)CC1c1cccc([N+](=O)[O-])c1` (centres undefined), the EC50 is > 30 µM (inactive).

In the case of `COc1ccccc1N1N=C(c2ccccc2)CC1c1ccccc1` (centres undefined), the EC50 was > 30 µM (inactive). Turning to `O=[N+]([O-])c1ccc(N2N=C(c3ccccc3)CC2c2ccccc2)cc1` (centres undefined), the EC50 was > 30 µM (inactive). As for `COc1ccc(C2CC(c3ccc(F)cc3)=NN2c2ccccc2)cc1OC` (centres undefined), the EC50 was > 30 µM (inactive). In the case of `COc1ccc(C2CC(c3cccs3)=NN2c2ccc(S(N)(=O)=O)cc2)cc1` (centres undefined), the EC50 was 3.98 µM and the Ki was 620 nM. Take `COc1ccc(C2CC(c3ccccc3Br)=NN2c2ccc(S(N)(=O)=O)cc2)cc1` (centres undefined): the EC50 was > 30 µM (inactive). Turning to `COc1ccc(C2CC(c3ccccc3)=NN2c2ccc(C(N)=O)cc2)cc1` (centres undefined), the EC50 is > 30 µM (inactive). Still for that read-out and setting: next, `COc1ccc(C2CC(c3ccccc3)=NN2c2ccc([N+](=O)[O-])cc2)cc1` (centres undefined): > 30 µM (inactive). For the molecule `CCc1ccc(C2=NN(c3ccc(S(N)(=O)=O)cc3)C(c3ccc(F)cc3)C2)cc1` (centres undefined), the EC50 result was “inactive”.

As to `COc1ccc(C2=NN(c3cccc(F)c3)C(c3ccc(OC)cc3)C2)cc1` (centres undefined), the EC50 was > 30 µM (inactive).

For `Cc1ccc(C2CC(c3ccccc3)=NN2c2ccc(S(N)(=O)=O)cc2)cc1` (centres undefined), the EC50 is 5.04 µM and the Ki was 780 nM. Regarding `COc1ccc(C2CC(c3ccsc3)=NN2c2ccc(S(N)(=O)=O)cc2)cc1` (centres undefined), the half-maximal effective concentration (EC50) was 7.34 µM and the Ki was 1140 nM. For `COc1ccc(C2CC(c3ccccc3OC)=NN2c2ccc(S(N)(=O)=O)cc2)cc1` (centres undefined), in that order: 5.52 µM and 850 nM. Consider `COc1ccc(C2CC(c3ccccc3)=NN2c2ccc(Cl)c(C(=O)O)c2)cc1OC` (centres undefined), for which the EC50 is > 30 µM (inactive). On the same count and under the same terms, for `CN(C)c1ccc(C2CC(c3ccc(Br)cc3)=NN2c2ccccc2)cc1` (centres undefined) the value was > 30 µM (inactive); for `COc1ccc(C2CC(C)=NN2c2ccc(S(N)(=O)=O)cc2)cc1` (centres undefined), > 30 µM (inactive); for `Clc1cccc(N2N=C(c3ccccc3)CC2c2ccccc2)c1` (centres undefined), > 30 µM (inactive). Consider `COc1ccc(C2CC(c3cccc(C(F)(F)F)c3)=NN2c2ccc(S(N)(=O)=O)cc2)cc1` (centres undefined), for which the EC50 is > 30 µM (inactive). In the case of `Fc1ccc(C2=NN(c3cccc(Br)c3)C(c3ccccc3)C2)cc1` (centres undefined), the EC50 is > 30 µM (inactive).

Regarding `COc1ccc(C2CC(c3ccccc3)=NN2c2ccc(S(N)(=O)=O)cc2)cc1OC` (centres undefined), the EC50 was 6.05 µM and the Ki is 940 nM.

For the molecule `COc1ccc(C2CC(c3ccccc3)=NN2c2cccc(S(N)(=O)=O)c2)cc1` (centres undefined), the EC50 entry is “inactive” and the Ki is 10 nM. On to `COc1ccc(C2CC(c3ccc(C(F)(F)F)cc3)=NN2c2ccc(S(N)(=O)=O)cc2)cc1` (centres undefined), for which the EC50 was > 30 µM (inactive). Still for that read-out and setting: next, `COc1ccc(C2CC(c3ccc(N(C)C)cc3)=NN2c2ccc(S(N)(=O)=O)cc2)cc1` (centres undefined): > 30 µM (inactive).

Regarding `FC(F)(F)c1cccc(N2N=C(c3ccc(Cl)cc3)CC2c2ccccc2Cl)c1` (centres undefined), the EC50 was > 30 µM (inactive). In the case of `CN(C)c1ccc(C2CC(c3ccccc3)=NN2c2ccccc2)cc1` (centres undefined), the EC50 entry was “inactive” and the Ki is 10 nM. `COc1ccc(C2CC(c3ccc(F)cc3)=NN2c2ccc(S(N)(=O)=O)cc2)cc1` (centres undefined): the EC50 is 5.47 µM and the Ki was 850 nM. As to `O=[N+]([O-])c1ccc(N2N=C(c3ccccc3)CC2c2ccc(O)cc2)cc1` (centres undefined), the EC50 was > 30 µM (inactive). For the molecule `COc1ccc(C2CC(c3cccc(N(C)C)c3)=NN2c2ccc(S(N)(=O)=O)cc2)cc1` (centres undefined), the EC50 is > 30 µM (inactive). Take `COc1ccc(C2CC(c3cccnc3)=NN2c2ccc(S(N)(=O)=O)cc2)cc1` (centres undefined): the EC50 was > 30 µM (inactive). On the same count and under the same terms, next, `COc1ccc(C2CC(c3ccc(Cl)cc3)=NN2c2ccccc2)cc1OC` (centres undefined): > 30 µM (inactive); `Brc1ccc(N2N=C(c3ccccc3)CC2c2ccccc2)cc1` (centres undefined): > 30 µM (inactive). In the case of `COc1ccc(C2CC(c3ccc(Cl)cc3)=NN2c2ccc(S(N)(=O)=O)cc2)cc1` (centres undefined), the EC50 is 4.05 µM and the inhibition constant (Ki) is 630 nM. With `Cc1onc(-c2ccccc2)c1-c1ccc(S(N)(=O)=O)cc1`, the EC50 was > 30 µM (inactive). Turning to `NS(=O)(=O)c1ccc(N2N=C(c3ccccc3)CC2c2cccc(Cl)c2)cc1` (centres undefined), the EC50 was 3.62 µM and the Ki is 560 nM. As for `COc1ccc(C2CC(c3ccccc3Cl)=NN2c2ccc(S(N)(=O)=O)cc2)cc1` (centres undefined), the EC50 is 2.88 µM and the Ki is 450 nM. For `COc1ccc(C2CC(c3ccc(Br)cc3)=NN2c2ccccc2Cl)cc1` (centres undefined), the EC50 was > 30 µM (inactive). For the molecule `COc1ccc(C2CC(c3cccc(F)c3)=NN2c2ccc(S(N)(=O)=O)cc2)cc1` (centres undefined), the EC50 is 3.45 µM and the Ki is 530 nM. For the molecule `FC(F)(F)c1ccccc1C1CC(c2ccc(Br)cc2)=NN1c1ccccc1` (centres undefined), the EC50 is > 30 µM (inactive). With `CN(C)c1ccc(C2CC(c3ccc(Cl)cc3)=NN2c2ccccc2)cc1` (centres undefined), the EC50 result was “inactive” and the Ki was 4670 nM. For the molecule `CC(=O)Oc1ccc(C2=NN(c3ccccc3)C(c3ccccc3)C2)cc1` (centres undefined), the EC50 entry is “inactive” and the Ki is 3770 nM. As to `COc1ccc(C2CC(c3ccccc3)=NN2c2ccc(C(=O)O)cc2)cc1` (centres undefined), the EC50 is > 30 µM (inactive). Regarding `CN(C)c1ccc(C2CC(c3ccc(F)cc3)=NN2c2ccccc2)cc1` (centres undefined), the EC50 was > 30 µM (inactive). Regarding `NS(=O)(=O)c1ccc(N2N=C(c3ccc(Cl)cc3)CC2c2ccccc2)cc1` (centres undefined), the EC50 is 7.11 µM and the Ki is 1100 nM. Turning to `O=[N+]([O-])c1cccc(C2CC(c3ccc(F)cc3)=NN2c2ccccc2)c1` (centres undefined), the EC50 is > 30 µM (inactive).

For `NS(=O)(=O)c1ccc(N2N=C(c3ccc(Br)cc3)CC2c2ccc(F)cc2)cc1` (centres undefined), the EC50 was > 30 µM (inactive). Turning to `COc1ccc(C2CC(c3cccc(Br)c3)=NN2c2ccc(S(N)(=O)=O)cc2)cc1` (centres undefined), the EC50 entry is “inactive” and the Ki was 320 nM. With `NS(=O)(=O)c1ccc(N2N=C(c3ccccc3)CC2c2ccc(Cl)cc2)cc1` (centres undefined), the EC50 was 3.64 µM and the Ki was 560 nM. For `COc1ccc(C2CC(c3ccccc3C)=NN2c2ccc(S(N)(=O)=O)cc2)cc1` (centres undefined), in that order: “inactive” and 360 nM. For `Cc1ccccc1C1CC(c2ccccc2)=NN1c1ccc(S(N)(=O)=O)cc1` (centres undefined), in that order: 13.6 µM and 2100 nM. On to `COc1ccccc1C1CC(c2ccccc2)=NN1c1ccc(S(N)(=O)=O)cc1` (centres undefined), for which the EC50 was > 30 µM (inactive). In the case of `COc1ccc(C2=NN(c3ccccc3)C(c3ccc(OC)c(OC)c3C(=O)O)C2)cc1` (centres undefined), the EC50 was > 30 µM (inactive).

As to `COc1ccc(C2=NN(c3ccccc3F)C(c3ccc(F)cc3)C2)cc1` (centres undefined), the EC50 is > 30 µM (inactive). Turning to `COc1ccc(C2=NN(c3ccc(Cl)c(Cl)c3)C(c3ccc(OC)cc3)C2)cc1` (centres undefined), the EC50 was > 30 µM (inactive).

In the case of `NS(=O)(=O)c1ccc(N2N=C(c3ccccc3)CC2c2ccccc2)cc1` (centres undefined), the EC50 was 16.8 µM and the Ki was 2600 nM. `COc1ccc(C2=NN(c3ccccc3)C(c3ccc(Cl)cc3)C2)cc1` (centres undefined): the EC50 was > 30 µM (inactive).

As to `COc1ccc(C2CC(c3ccccc3C(F)(F)F)=NN2c2ccc(S(N)(=O)=O)cc2)cc1` (centres undefined), the EC50 was > 30 µM (inactive). On to `NS(=O)(=O)c1ccc(N2N=C(c3ccccc3)CC2c2cccc(Br)c2)cc1` (centres undefined), for which the EC50 is 3.67 µM and the Ki is 570 nM. In the case of `COc1ccc(C2=NN(c3cccc(F)c3)C(c3ccc(Cl)cc3)C2)cc1` (centres undefined), the EC50 entry was “inactive” and the Ki is 4860 nM.

Consider `COc1ccc(C2CC(c3ccccc3F)=NN2c2ccc(S(N)(=O)=O)cc2)cc1` (centres undefined), for which the EC50 was 3.57 µM and the Ki was 550 nM.
